Test results reported in patent publication US8791132B2, “Compounds and methods for treatment of hypertension” (Medivation Technologies, Inc., priority 2011, dated 2014).
Where two headings read alike, the source gives them in different places.

What was measured:
[1] = molecular target: T1, human recombinant adrenergic α2B receptor (Homo sapiens, UniProt P18089); assay: Radioligand binding, adrenergic α2B ([3H]Rauwolscine)
T1 construct: expressed in transfected cells; host or cells: CHO-K1
T1 sequence (P18089 1-450): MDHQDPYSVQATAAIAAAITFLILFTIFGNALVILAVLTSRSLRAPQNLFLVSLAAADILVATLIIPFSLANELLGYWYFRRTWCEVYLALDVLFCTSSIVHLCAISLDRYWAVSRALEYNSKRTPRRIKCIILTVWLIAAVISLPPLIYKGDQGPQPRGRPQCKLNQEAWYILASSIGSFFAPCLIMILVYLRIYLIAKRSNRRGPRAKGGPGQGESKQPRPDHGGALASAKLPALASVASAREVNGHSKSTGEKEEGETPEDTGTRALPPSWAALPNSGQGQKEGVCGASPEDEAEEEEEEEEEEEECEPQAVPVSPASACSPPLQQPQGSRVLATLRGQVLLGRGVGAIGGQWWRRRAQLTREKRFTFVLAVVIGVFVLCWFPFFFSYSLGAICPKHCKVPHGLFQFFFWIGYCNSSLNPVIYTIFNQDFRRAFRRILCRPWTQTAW
Outline: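 Assay used CHO-K1-expressed human α2B receptor in Tris-HCl pH 7.4 buffer with MgCl2, EDTA and BSA; 60 min incubation at 25 °C.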

[2] = molecular target: T2, human recombinant adrenergic α2A receptor (Homo sapiens, UniProt P08913); assay: Radioligand binding, adrenergic α2A ([3H]MK-912); conditions: for Percentage inhibition of ligand binding, Adrenergic α2A (0.1 μM): compound at 0.1 μM
T2 construct: expressed in transfected cells; host or cells: insect Sf9 cells
T2 sequence (P08913 1-465): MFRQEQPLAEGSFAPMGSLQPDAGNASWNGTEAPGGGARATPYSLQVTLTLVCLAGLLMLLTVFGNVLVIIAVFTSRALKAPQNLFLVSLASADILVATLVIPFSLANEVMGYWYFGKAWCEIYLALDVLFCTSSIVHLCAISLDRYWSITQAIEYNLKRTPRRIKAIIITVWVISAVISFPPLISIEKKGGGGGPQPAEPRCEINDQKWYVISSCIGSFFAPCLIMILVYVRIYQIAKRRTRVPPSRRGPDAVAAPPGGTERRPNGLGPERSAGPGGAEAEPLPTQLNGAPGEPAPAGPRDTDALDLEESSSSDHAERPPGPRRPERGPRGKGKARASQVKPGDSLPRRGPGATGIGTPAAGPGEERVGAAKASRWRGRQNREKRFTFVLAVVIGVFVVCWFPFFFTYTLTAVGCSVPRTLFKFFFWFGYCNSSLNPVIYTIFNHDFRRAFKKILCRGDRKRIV
Outline: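 In 50 mM Tris-HCl (pH 7.4) containing 12.5 mM MgCl2 and 2 mM EDTA, Sf9-expressed receptor was exposed to test compound plus 1 nM [3H]MK-912 at 25 °C for 60 min. Specific binding, corrected using 10 μM WB-4101, was quantified by filtration and counting and expressed as percent inhibition.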

[3] = molecular target: T3, rat adrenergic α1B receptor (Rattus norvegicus, UniProt P15823); assay: Radioligand binding, adrenergic α1B ([3H]Prazosin)
T3 construct: rat adrenergic α1B receptor obtained from Wistar Rat liver; from tissue; host or cells: Wistar rat liver
T3 sequence (P15823 1-515): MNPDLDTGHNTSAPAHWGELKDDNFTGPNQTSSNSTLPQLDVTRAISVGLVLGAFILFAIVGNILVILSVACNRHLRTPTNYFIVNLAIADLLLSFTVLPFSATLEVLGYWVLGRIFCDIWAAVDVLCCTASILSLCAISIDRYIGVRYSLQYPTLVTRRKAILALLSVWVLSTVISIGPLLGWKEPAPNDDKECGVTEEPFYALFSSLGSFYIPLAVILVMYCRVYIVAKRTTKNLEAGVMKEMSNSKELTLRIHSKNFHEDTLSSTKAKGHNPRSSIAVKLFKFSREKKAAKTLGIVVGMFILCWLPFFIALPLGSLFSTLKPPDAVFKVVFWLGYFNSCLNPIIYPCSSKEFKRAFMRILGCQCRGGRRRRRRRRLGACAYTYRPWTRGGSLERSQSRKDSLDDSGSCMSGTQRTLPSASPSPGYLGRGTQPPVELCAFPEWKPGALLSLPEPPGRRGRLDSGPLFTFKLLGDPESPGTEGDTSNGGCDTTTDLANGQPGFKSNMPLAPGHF
Outline: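 Incubation ran 60 min at 25 °C in Tris-HCl buffer (50 mM, pH 7.4, 0.5 mM EDTA) with Wistar rat liver α1B receptor. 10 μM phentolamine set non-specific binding.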

[4] = 0.03 μM compound, read-out: Percentage inhibition of ligand binding, Adrenergic α2B
[5] = 0.1 μM compound, read-out: Percentage inhibition of ligand binding, Adrenergic α2A
[6] = 0.1 μM compound, read-out: Percentage inhibition of ligand binding, Adrenergic α1B
[7] = read-out: Percentage inhibition of ligand binding, Adrenergic α2B (0.03 μM), compound at 0.03 μM, [3H]Rauwolscine, repeat datapoints each shown
[8] = read-out: Percentage inhibition of ligand binding, Adrenergic α2A (0.1 μM), compound at 0.1 μM, [3H]MK-912, repeat datapoints each shown
[9] = read-out: Percentage inhibition of ligand binding, Adrenergic α1B (0.1 μM), compound at 0.1 μM, [3H]Prazosin, repeat datapoints each shown
[10] = [3H]MK-912, repeat datapoints each shown

SMILES	inhibition at 0.03 µM [1, 4] [%]	inhibition at 0.1 µM [2, 5] [%]	inhibition at 0.1 µM [3, 6] [%]	further results
CC1c2c(c3cc(Cl)ccc3n2CC(O)c2ccncc2)CCN1C (stereo not drawn) [II-72]	47	25	30	
Cc1ccc2c(c1)c1c(n2CC(O)c2ccncc2)C(C)N(C)CC1 (stereo not drawn) [II-73]	33	28	34	
CCC1c2c(c3cc(C)ccc3n2CC(O)c2ccncc2)CCN1C (stereo not drawn) [II-74]	18	10	11	
Cc1ccc2c(c1)c1c(n2CC(O)c2ccncc2)CCN(CCCO)C1 (stereo not drawn) [II-75, 3-(3,4-dihydro-5-(2-hydroxy-2-(pyridin-4-yl)ethyl)-8-methyl-1H-pyrido[4,3-b]indol-2(5H)-yl)propan-1-ol]	35	15	8	
CN1CCc2c(c3cccnc3n2CC(O)c2ccncc2)C1 (stereo not drawn) [II-78]	-9	1	-11	
OC(Cn1c2c(c3cccnc31)C1CCCN1CC2)c1ccncc1 (stereo not drawn) [II-79]	59	0	7	
Cc1ccc2c(c1)c1c(n2CC(C)(O)c2ccc(O)nc2)CCN(C)C1 (stereo not drawn) [II-80, 5-[2-(2,8-dimethyl-1,2,3,4-tetrahydro-pyrido[4,3-b]indol-5-yl)-1-hydroxy-1-methyl-ethyl]-pyridin-2-ol]	9	3	4	
OCc1ccc2c(c1)c1c(n2CC(O)c2ccncc2)CCNC1 (stereo not drawn) [II-81, 2-(8-hydroxymethyl-1,2,3,4-tetrahydro-pyrido[4,3-b]indol-5-yl)-1-pyridin-4-yl-ethanol]	-9	15	-1	
OC(Cn1c2c(c3ccccc31)C1CCC(C2)N1)c1ccncc1 (stereo not drawn) [II-85]	-2	15	-7	
OC(Cn1c2c(c3cc(Cl)cnc31)CN1CCCC1C2)c1ccncc1 (stereo not drawn) [II-86]	35	27	44	
CN1CCc2c(n(CC(O)c3cccnc3)c3ccc(Cl)cc23)C1 (stereo not drawn) [II-87]	24	1	11	
Cc1ccc2c(c1)c1c(n2CC(O)c2ccc(O)c(O)c2)CCN(C)C1 (stereo not drawn) [II-88, 4-[2-(2,8-dimethyl-1,2,3,4-tetrahydro-pyrido[4,3-b]indol-5-yl)-1-hydroxy-ethyl]-benzene-1,2-diol]	48	-2	68	
OC(Cn1c2c(c3cc(Cl)ccc31)CNCC2)c1cccnc1 (stereo not drawn) [II-89, 2-(8-chloro-1,2,3,4-tetrahydro-pyrido[4,3-b]indol-5-yl)-1-pyridin-3-yl-ethanol]	35	-5	13	
Cc1ccc2c(c1)c1c(n2CC(O)c2ccnc3ccccc23)CCN(C)C1 (stereo not drawn) [II-90, 2-(2,8-dimethyl-3,4-dihydro-1H-pyrido[4,3-b]indol-5(2H)-yl)-1-(quinolin-4-yl)ethanol]	55	19	62	
Cc1ccc2c(c1)c1c(n2CC(O)C2CCCCC2)CCN(C)C1 (stereo not drawn) [II-91]	25	-2	16	
Cc1ccc2c(c1)c1c(n2CC(O)c2ccc(O)nc2)CCN(C)C1 (stereo not drawn) [II-92, 5-(2-(1,2,3,4-tetrahydro-2,8-dimethylpyrido[4,3-b]indol-5-yl)-1-hydroxyethyl)pyridin-2(1H)-one]	25	0	13	
OCCN1CCc2c(c3cc(Cl)ccc3n2CC(O)c2ccncc2)C1 (stereo not drawn) [II-93a]		7		Percentage inhibition of ligand binding, Adrenergic α2B ([1]; 0.03 μM compound): 24%; Percentage inhibition of ligand binding, Adrenergic α1B ([3]; 0.1 μM compound): 6%
Cc1ccc2c(c1)c1c(n2CC(O)c2ccncc2)CCN(CCS(=O)(=O)O)C1 (stereo not drawn) [II-97, 2-(3,4-dihydro-5-(2-hydroxy-2-(pyridin-4-yl)ethyl)-8-methyl-1H-pyrido[4,3-b]indol-2(5H)-yl)ethanesulfonic acid]	24	4	-4	
CN1CCc2c(c3cc(CO)ccc3n2CC(C)(O)c2cccnc2)C1 (stereo not drawn) [II-102]	49	10	2	
CC(O)(Cn1c2c(c3cc(CO)ccc31)CNCC2)c1cccnc1 (stereo not drawn) [II-104]	21	10	3	
Cc1cnc2c(c1)c1c(n2CC(O)c2ccc(C(N)=O)nc2)CCN(C)C1 (stereo not drawn) [II-111, 5-[2-(3,6-dimethyl-5,6,7,8-tetrahydro-1,6,9-triaza-fluoren-9-yl)-1-hydroxy-ethyl]-pyridine-2-carboxylic acid amide]				inhibition at 0.03 µM [1, 7]: 35%; inhibition at 0.1 µM [2, 8]: 3%; inhibition at 0.1 µM [3, 9]: 42%
Cc1ccc2c(c1)c1c(n2CC(C)(O)c2cccnc2)C(c2ccccc2)N(C)CC1 (stereo not drawn) [II-112a, 1-(2,6-dimethyl-1-phenyl-1,2,3,4-tetrahydro-β-carbolin-9-yl)-2-pyridin-3-yl-propan-2-ol]				inhibition at 0.03 µM [1, 7]: 36%; Percentage inhibition of ligand binding, Adrenergic α2A (0.1 μM) [2, 10]: 10%; inhibition at 0.1 µM [3, 9]: 5%
Cc1ccc2c(c1)c1c(n2CC(C)(O)c2cccnc2)C(c2ccccc2)N(C)CC1 (stereo not drawn) [II-112b, 1-(2,6-dimethyl-1-phenyl-1,2,3,4-tetrahydro-β-carbolin-9-yl)-2-pyridin-3-yl-propan-2-ol]				Percentage inhibition of ligand binding, Adrenergic α2B (0.03 μM) ([1]; compound at 0.03 μM, [3H]Rauwolscine, repeat datapoints each shown, 0.03 µM): 31%; Percentage inhibition of ligand binding, Adrenergic α2A (0.1 μM) [2, 10]: 3%; Percentage inhibition of ligand binding, Adrenergic α1B (0.1 μM) ([3]; compound at 0.1 μM, [3H]Prazosin, repeat datapoints each shown, 0.1 µM): 10%
Cc1cnc2c(c1)c1c(n2CC(O)c2ccc(C#N)cc2)CCNC1 (stereo not drawn) [II-116]				inhibition at 0.03 µM [1, 7]: 43%; inhibition at 0.1 µM [2, 8]: 3%; inhibition at 0.1 µM [3, 9]: 4%
Cc1ccc2c(n1)c1c(n2CC(O)c2ccncc2)CCN2CCCC12 (stereo not drawn) [II-122]				inhibition at 0.03 µM [1, 7]: 47%; inhibition at 0.1 µM [2, 8]: -10%; inhibition at 0.1 µM [3, 9]: -2%
CN1CCc2c(c3ncccc3n2CC(C)(O)c2cccnc2)C1 (stereo not drawn) [II-126]				inhibition at 0.03 µM [1, 7]: 4%; inhibition at 0.1 µM [2, 8]: 4%; inhibition at 0.1 µM [3, 9]: -4%
Cc1ccc2c(c1)c1c(n2CC(C)(O)c2ccc(C)nc2)CCN2CCCC12 (stereo not drawn) [II-128a, 1-(9-methyl-1,2,3,4,5,10c-hexahydro-3a,6-diaza-cyclopenta[c]fluoren-6-yl)-2-(6-methyl-pyridin-3-yl)-propan-2-ol]				inhibition at 0.03 µM [1, 7]: 97%; inhibition at 0.1 µM [2, 8]: 34%; inhibition at 0.1 µM [3, 9]: 61%
